These results are taken from ChEMBL document CHEMBL1201862, “PubChem BioAssay data set” (2004).

Values joined by “and” are separate entries in the source; they are usually repeats but may differ in a detail not shown here. Identical values can stand only once. Active and inactive are the calls of the source. Some results are limits rather than exact numbers.

For assay [1], the target named is Serine/threonine-protein kinase pim-1 (Homo sapiens, UniProt P11309). The format is functional.
Assay [2] addresses Cell division cycle 7-related protein kinase (Homo sapiens, UniProt O00311). It counts as functional.
For assay [3], the target named is Homeodomain-interacting protein kinase 2 (Homo sapiens, UniProt Q9H2X6). The format is functional.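 Also: measured within a kinome-wide kinase profiling panel, HIPK2 being one panel member.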
For assay [4], the target named is MAP kinase-interacting serine/threonine-protein kinase 2 (Homo sapiens, UniProt Q9HBH9). It counts as functional.
Chain of MAP kinase-interacting serine/threonine-protein kinase 2 (Q9HBH9 whole entry): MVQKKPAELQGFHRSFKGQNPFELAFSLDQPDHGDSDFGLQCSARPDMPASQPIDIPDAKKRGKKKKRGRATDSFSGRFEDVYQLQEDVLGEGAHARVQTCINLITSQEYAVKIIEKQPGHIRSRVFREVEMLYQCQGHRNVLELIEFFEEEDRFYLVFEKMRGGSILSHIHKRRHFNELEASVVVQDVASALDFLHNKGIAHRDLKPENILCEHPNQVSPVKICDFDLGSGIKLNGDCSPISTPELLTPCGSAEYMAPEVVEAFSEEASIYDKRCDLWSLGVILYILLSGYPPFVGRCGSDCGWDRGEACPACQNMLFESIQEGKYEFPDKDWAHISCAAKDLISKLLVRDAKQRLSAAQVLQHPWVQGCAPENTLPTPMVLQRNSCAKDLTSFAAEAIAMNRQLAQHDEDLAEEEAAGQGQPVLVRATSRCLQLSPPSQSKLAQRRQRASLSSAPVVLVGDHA
Assay [5] deals with Interleukin-1 receptor-associated kinase 4 (Homo sapiens, UniProt Q9NWZ3). The format is functional.
Assay [6] addresses Cyclin-dependent kinase 7 (Homo sapiens, UniProt P50613). It counts as functional.
Assay [7] deals with Glycogen synthase kinase-3 beta (Homo sapiens, UniProt P49841). The format is functional.
Assay [8] concerns the target Cyclin-dependent kinase 9 (Homo sapiens, UniProt P50750). The format is functional.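 Also: value from the CDK9 entry of a kinome-spanning kinase panel.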
Assay [9] concerns the target cAMP-dependent protein kinase catalytic subunit alpha (Homo sapiens, UniProt P17612). It counts as functional.
Assay [10] deals with Dual specificity protein kinase CLK4 (Homo sapiens, UniProt Q9HAZ1). It counts as functional.
In assay [11] the target is Mitogen-activated protein kinase kinase kinase kinase 4 (Homo sapiens, UniProt O95819). The format is functional.
Chain of Mitogen-activated protein kinase kinase kinase kinase 4 (O95819 whole entry): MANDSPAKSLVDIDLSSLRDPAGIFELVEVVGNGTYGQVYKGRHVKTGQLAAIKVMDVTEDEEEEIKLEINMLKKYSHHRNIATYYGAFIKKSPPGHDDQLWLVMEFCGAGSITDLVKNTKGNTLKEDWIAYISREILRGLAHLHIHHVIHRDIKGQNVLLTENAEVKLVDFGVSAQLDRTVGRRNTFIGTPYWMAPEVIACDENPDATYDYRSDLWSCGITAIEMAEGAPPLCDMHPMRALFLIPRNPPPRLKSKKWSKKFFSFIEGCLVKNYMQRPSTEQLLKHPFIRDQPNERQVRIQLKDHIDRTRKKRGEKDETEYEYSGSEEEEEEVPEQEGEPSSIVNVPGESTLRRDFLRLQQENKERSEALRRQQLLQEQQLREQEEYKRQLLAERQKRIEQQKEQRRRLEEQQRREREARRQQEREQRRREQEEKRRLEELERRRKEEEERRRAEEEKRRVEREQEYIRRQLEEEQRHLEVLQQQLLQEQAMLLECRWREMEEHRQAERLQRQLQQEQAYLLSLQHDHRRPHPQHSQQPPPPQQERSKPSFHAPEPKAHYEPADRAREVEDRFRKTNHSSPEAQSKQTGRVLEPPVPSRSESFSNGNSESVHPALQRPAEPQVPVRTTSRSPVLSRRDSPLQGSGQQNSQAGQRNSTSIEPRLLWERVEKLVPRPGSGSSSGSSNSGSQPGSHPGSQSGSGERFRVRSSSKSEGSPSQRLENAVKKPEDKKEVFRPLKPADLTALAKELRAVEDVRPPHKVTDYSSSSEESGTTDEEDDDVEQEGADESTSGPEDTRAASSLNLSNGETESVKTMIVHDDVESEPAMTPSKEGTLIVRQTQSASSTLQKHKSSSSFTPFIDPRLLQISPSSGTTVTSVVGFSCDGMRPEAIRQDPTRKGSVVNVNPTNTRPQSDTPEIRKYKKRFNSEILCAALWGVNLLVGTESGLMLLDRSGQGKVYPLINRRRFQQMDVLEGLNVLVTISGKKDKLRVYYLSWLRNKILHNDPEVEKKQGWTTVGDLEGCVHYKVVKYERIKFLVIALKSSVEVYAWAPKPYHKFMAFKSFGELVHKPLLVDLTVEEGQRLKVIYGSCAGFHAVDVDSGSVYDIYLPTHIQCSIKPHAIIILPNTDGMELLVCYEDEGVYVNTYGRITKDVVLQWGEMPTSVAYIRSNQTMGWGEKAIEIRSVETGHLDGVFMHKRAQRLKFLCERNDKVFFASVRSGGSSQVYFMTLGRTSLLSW
Assay [12] in a line: SAR analysis of small molecule activators of Apaf-1 using a LZ-Caspase-9/Caspase-3 Fluorescent Selectivity assay - Set 2. The format is functional. The conditions noted are these: read-out: EC50_Mean.
In assay [13] the target is T1, Apoptotic protease-activating factor 1 (Homo sapiens, UniProt O14727).
T1 sequence (O14727 whole entry): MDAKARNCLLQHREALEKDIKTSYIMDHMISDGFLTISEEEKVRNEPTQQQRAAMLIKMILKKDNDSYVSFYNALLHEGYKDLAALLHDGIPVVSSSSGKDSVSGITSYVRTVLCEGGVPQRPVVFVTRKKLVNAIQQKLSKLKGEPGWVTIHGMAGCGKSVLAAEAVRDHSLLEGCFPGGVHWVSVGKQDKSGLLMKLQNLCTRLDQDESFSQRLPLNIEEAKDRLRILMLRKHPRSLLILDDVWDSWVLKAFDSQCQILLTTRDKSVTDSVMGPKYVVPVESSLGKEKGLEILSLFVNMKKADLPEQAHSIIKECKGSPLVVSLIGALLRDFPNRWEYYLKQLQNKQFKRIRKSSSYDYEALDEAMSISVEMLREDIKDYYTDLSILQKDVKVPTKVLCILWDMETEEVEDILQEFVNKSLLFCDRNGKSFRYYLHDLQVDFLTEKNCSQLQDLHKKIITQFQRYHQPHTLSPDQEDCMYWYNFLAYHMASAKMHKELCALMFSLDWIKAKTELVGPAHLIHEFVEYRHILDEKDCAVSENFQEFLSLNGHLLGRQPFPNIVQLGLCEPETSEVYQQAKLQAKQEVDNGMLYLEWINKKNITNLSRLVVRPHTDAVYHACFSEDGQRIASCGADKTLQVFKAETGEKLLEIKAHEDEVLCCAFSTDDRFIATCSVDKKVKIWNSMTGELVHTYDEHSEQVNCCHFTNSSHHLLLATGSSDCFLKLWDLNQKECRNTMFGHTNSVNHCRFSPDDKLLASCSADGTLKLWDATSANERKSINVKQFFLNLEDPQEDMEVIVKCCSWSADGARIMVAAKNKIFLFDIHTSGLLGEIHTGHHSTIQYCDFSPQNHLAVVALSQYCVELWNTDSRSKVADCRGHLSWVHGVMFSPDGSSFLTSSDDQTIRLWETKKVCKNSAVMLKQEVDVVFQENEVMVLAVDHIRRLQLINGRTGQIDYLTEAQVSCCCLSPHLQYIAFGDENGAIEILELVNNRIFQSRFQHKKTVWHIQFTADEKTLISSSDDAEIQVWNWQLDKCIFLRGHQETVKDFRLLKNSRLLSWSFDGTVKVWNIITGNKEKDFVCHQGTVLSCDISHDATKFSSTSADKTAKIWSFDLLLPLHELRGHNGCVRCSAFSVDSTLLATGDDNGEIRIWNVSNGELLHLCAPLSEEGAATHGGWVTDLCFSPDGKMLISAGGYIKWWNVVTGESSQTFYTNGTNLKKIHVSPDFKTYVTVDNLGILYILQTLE
As to the kind of experiment: SAR analysis of small molecule Activators of Apaf-1 in a Fluorescent assay. The format is functional. Conditions: read-out: EC50_Mean.

Assay [14] has as its target T1, Apoptotic protease-activating factor 1. As to the kind of experiment: SAR analysis of small molecule Activators of Apaf-1 in a Fluorescent assay - set 2. The format is functional. The conditions noted are these: read-out: EC50_Mean.
The target of assay [15] is Mast/stem cell growth factor receptor Kit (Homo sapiens, UniProt P10721). It counts as functional.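 Also: KIT entry within a kinase panel assay.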
Chain of Mast/stem cell growth factor receptor Kit (P10721 whole entry): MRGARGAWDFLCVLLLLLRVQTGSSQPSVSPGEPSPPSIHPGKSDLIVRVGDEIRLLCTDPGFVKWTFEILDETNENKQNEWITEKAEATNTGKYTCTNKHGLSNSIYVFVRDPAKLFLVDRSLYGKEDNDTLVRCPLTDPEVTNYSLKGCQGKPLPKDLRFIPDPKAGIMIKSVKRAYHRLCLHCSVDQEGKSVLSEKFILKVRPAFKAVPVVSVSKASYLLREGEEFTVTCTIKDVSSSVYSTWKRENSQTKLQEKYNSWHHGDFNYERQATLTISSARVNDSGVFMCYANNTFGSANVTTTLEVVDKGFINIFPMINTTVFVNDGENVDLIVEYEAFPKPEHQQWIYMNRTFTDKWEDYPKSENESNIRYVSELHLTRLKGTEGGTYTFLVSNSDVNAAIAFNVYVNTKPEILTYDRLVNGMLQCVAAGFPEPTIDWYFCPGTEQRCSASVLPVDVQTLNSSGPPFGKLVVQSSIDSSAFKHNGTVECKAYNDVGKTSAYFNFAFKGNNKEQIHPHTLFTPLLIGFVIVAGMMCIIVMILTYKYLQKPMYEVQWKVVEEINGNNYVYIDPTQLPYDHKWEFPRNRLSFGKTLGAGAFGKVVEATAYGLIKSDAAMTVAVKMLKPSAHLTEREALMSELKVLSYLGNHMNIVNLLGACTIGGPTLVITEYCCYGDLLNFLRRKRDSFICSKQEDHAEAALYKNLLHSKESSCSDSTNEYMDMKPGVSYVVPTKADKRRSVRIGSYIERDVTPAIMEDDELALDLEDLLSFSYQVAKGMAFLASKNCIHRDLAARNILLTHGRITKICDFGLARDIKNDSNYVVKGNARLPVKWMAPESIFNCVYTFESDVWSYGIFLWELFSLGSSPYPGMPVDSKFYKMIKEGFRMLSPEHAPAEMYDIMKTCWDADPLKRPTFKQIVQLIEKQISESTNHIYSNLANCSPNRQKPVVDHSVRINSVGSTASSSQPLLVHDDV
Assay [16] addresses Tyrosine-protein kinase Blk (Homo sapiens, UniProt P51451). The format is functional.
For assay [17], the target named is Mitogen-activated protein kinase 13 (Homo sapiens, UniProt O15264). It counts as functional.
Chain of Mitogen-activated protein kinase 13 (O15264 whole entry): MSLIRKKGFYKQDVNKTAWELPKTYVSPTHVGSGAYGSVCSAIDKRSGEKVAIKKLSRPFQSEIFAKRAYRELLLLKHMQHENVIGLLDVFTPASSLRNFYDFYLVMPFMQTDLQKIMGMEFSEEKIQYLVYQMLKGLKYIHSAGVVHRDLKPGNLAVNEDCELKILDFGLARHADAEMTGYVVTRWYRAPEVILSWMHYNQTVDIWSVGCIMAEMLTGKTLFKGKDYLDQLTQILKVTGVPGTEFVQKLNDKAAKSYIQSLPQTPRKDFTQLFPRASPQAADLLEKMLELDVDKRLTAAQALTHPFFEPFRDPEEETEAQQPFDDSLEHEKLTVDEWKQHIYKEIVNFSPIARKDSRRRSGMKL
Assay [18] concerns the target Mitogen-activated protein kinase kinase kinase kinase 2 (Homo sapiens, UniProt Q12851). The format is functional.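 Also: measured as one member of a kinome-wide kinase panel, with MAP4K2 as the panel entry.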
For assay [19], the target named is Mitogen-activated protein kinase kinase kinase kinase 5 (Homo sapiens, UniProt Q9Y4K4). The format is functional.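 Also: measured as one member of a kinome-spanning kinase panel.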
Assay [20] addresses DNA dC->dU-editing enzyme APOBEC-3G (Homo sapiens, UniProt Q9HC16). As to the kind of experiment: inhibition of APOBEC3G ssDNA deamination – biochemical, fluorescence, single-stranded DNA substrate, SAR follow-up (AID 602136). It counts as functional. The conditions noted are these: read-out: IC50_Mean.
Assay [21] addresses DNA dC->dU-editing enzyme APOBEC-3A (Homo sapiens, UniProt P31941). As to the kind of experiment: SAR analysis of small molecule inhibitors of APOBEC3A DNA Deaminase via a fluorescence-based single-stranded DNA deaminase assay. It counts as functional. The conditions noted are these: read-out: IC50_Mean.
Assay [22] deals with Tumor necrosis factor (Homo sapiens, UniProt P01375). As to the kind of experiment: analog potency on TNFa NF-kB signaling – cell-based, revised, SAR follow-up (AID 2337). It counts as functional.
The target of assay [23] is T2, Nucleotide-binding oligomerization domain-containing protein 1 (Homo sapiens, UniProt Q9Y239).
T2 sequence (Q9Y239 whole entry): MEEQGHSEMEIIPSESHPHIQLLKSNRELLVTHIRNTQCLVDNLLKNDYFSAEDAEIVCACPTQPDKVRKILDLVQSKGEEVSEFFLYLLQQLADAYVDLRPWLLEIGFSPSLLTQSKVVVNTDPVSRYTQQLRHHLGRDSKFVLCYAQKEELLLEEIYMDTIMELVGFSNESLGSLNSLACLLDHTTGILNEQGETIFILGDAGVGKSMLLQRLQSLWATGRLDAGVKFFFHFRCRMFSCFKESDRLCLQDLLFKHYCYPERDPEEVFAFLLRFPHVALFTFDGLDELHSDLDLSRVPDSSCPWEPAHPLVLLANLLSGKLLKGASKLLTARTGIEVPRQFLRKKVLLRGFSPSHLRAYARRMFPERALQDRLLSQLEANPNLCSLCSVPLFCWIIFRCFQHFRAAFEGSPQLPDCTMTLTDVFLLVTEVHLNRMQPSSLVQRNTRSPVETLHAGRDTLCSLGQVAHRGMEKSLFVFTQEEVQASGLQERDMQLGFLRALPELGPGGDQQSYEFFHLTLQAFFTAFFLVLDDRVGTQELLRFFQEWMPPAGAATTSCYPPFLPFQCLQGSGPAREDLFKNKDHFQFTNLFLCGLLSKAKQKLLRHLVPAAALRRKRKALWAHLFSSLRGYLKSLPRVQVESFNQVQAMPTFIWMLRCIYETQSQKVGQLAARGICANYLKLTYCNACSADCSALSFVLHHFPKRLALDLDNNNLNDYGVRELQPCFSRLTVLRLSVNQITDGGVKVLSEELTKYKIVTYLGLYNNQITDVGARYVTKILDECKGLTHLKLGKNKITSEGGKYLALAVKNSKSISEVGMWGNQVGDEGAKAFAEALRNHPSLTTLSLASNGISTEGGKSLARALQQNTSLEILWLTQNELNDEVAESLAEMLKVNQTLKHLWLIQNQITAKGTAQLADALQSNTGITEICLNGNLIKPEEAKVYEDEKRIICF
As to the kind of experiment: blockers of NOD1 pathway activity – revised, SAR follow-up (AID 2333). It counts as functional.

Assay [24] deals with Luciferin 4-monooxygenase (Photinus pyralis, UniProt P08659). As to the kind of experiment: inhibition of purified Photinus pyralis luciferase – biochemical, dry powder samples, plate reader, dose response (AID 588451).
Assay [25] deals with H4. As to the kind of experiment: inhibitors of control reporter signal in H4 cells – cell-based, plate reader, dry powder samples, counter-screen for prion reporter project, dose response (AID 540255). It counts as functional. Conditions: Homo sapiens. Background: Counterscreens check selectivity or assay interference.
Assay [26] deals with H4. As to the kind of experiment: Amyloid Precursor 5' UTR neuroblastoma cell reporter line Measured in Cell-Based System Using Plate Reader - 2078-04_Inhibitor_Dose_DryPowder_Activity. [Related pubchem assays (depositor defined):AID488894]. The format is functional. Conditions: Homo sapiens.
Assay [27] concerns H4. Nature of the assay: Inhibitors of Prion Protein 5' UTR mRNA Measured in Cell-Based System Using Plate Reader - 2078-01_Inhibitor_Dose_DryPowder_Activity. [Related pubchem assays (depositor defined):AID488894]. It counts as functional. Conditions: Homo sapiens.
Assay [28] has as its system HEK293. Nature of the assay: cells. Conditions: Homo sapiens.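 Also: cells exposed to compound for 14 hours overnight before viability readout.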
Assay [29] addresses Casein kinase I isoform alpha (Homo sapiens, UniProt P48729). The format is functional.
Assay [30] concerns the target G protein-coupled receptor kinase 5 (Homo sapiens, UniProt P34947). As to the kind of experiment: Navigating the Kinome. Panel member name: GPRK5. It counts as functional.

Chain of Cell division cycle 7-related protein kinase (O00311 whole entry): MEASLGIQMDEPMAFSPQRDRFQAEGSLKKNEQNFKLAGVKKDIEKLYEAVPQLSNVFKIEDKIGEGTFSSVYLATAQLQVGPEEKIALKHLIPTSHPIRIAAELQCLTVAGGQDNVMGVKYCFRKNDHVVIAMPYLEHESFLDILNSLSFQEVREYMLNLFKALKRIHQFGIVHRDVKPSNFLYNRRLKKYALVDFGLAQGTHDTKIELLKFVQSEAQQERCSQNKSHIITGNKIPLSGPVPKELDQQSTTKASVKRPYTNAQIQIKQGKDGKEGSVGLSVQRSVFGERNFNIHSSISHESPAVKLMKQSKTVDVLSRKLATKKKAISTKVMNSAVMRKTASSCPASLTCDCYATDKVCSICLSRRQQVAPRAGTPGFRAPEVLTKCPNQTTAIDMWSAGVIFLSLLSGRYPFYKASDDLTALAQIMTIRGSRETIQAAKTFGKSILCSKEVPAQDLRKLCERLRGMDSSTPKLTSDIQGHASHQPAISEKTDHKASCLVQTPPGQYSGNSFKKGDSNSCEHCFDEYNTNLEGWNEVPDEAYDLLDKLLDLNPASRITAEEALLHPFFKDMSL
Chain of Tyrosine-protein kinase Blk (P51451 whole entry): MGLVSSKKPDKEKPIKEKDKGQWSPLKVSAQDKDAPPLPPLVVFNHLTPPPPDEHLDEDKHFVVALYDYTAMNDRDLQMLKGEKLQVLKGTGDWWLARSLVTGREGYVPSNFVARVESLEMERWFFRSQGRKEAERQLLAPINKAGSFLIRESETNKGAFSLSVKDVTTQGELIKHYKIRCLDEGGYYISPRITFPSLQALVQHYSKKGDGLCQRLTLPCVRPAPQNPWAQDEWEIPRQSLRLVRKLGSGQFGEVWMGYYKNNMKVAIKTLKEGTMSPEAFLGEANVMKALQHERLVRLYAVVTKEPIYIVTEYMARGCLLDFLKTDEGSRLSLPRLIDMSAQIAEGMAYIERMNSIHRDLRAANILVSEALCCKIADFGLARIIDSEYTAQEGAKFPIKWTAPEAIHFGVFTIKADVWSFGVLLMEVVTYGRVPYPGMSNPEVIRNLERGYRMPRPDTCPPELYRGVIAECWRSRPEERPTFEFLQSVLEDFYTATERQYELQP
Chain of Cyclin-dependent kinase 7 (P50613 whole entry): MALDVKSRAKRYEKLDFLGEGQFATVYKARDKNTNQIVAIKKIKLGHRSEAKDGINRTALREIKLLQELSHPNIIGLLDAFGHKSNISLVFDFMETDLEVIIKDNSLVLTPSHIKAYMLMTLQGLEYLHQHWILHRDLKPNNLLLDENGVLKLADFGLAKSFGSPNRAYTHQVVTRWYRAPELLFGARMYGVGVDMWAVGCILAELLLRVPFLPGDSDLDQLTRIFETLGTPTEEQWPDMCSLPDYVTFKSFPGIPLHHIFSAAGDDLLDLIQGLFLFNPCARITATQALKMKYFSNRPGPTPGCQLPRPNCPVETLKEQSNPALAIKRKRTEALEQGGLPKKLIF
Chain of DNA dC->dU-editing enzyme APOBEC-3G (Q9HC16 whole entry): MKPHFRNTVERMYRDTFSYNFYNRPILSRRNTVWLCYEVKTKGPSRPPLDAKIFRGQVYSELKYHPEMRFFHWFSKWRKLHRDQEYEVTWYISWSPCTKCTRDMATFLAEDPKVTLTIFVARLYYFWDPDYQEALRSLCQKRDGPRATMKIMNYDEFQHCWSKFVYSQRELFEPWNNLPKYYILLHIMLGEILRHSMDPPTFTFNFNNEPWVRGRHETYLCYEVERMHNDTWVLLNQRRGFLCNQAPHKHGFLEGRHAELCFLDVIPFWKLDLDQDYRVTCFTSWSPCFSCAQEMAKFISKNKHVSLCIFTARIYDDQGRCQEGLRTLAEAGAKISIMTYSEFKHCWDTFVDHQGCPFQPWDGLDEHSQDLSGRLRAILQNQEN

Usually Ki stands for the dissociation constant of the complex between target and ligand, obtained from inhibition or displacement. On to `CN(C)c1cc(-c2ccncc2)cc2[nH]nc(N)c12`, for which the Ki was 5010 nM (active) in assay [1]; 12.6 nM (active) in assay [2]; 2000 nM (active) in assay [3]; 126 nM (active) in assay [4]; 398 nM (active) in assay [5]; 200 nM (active) in assay [6]. Further, the Ki in assay [7] was 1260 nM (active); in assay [8] it was 100 nM (active); in assay [9], 501 nM (active); in assay [10] it was 12.6 nM (active); in assay [11], 100 nM (active).

For `Cc1nn(CC(C)C(=O)O)c(C)c1Br` (stereo unspecified), the EC50 in assay [12] is > 100 µM (inactive) and > 99 µM (inactive); in [13], 5130 nM (active); in assay [14], 4.75 µM (active) and 3.41 µM (active) and 12.7 µM (active).

With `CC1(O)CC(c2nc(-c3ccc4ccc(-c5ccccc5)nc4c3)c3c(N)nccn23)C1` (stereo unspecified), the Ki is > 1260 nM (inactive) in assay [2]; > 1260 nM (inactive) in [15]; 316 nM (active) in [16]; > 7940 nM (inactive) in assay [17]; 794 nM (active) in assay [18]; 316 nM (active) in assay [19].

On to `CCCn1c(=O)c2ccc(C(=O)NC(C)C)cc2n2c(=O)n(Cc3c(F)cccc3Cl)nc12`, for which the IC50 in assay [20] and in assay [21] was > 99000 nM (inactive) each time.

The AC50 is the concentration giving half of the maximal activity seen. On to `CC(C)(C)c1ccc(-c2nc3ccccc3s2)cc1`, for which the IC50 in assay [22] was 246 nM (active); in assay [23] it was 31.8 nM (active); in assay [28] it was > 20000 nM (inactive). The AC50 in assay [24] is 25800 nM (active); in assay [25], 205 nM (active); in assay [26], 2.26 nM (active); in assay [27], 11 nM (active).

As for `NS(=O)(=O)OCC1CC(n2ccc3c(NC4CCc5ccccc54)ncnc32)CC1O` (stereo unspecified), the Ki in assay [29] is 3160 nM (active); in assay [30] it was 2510 nM (active).
